Measured values from patent publication US20240336630A1, “MAP4K1 INHIBITORS” (Blueprint Medicines Corporation, priority 2021, published 2024).

These molecules were tested against T1, MAP4K1 (HPK1) (Homo sapiens, UniProt Q92918) (assay: Inhibition of MAP4K1 biochemical enzymatic activity (EZReader 2 electrophoretic mobility shift)). Settings: HPK1 (Invitrogen), S6K2tide 1.5 μM, 120 min; ATP 26 μM or 1000 μM, not stated which for Table 3.
T1 construct: purchased Invitrogen
Text: MAP4K1 (HPK1) and relevant off-target enzymatic activity was monitored using the Perkin Elmer electrophoretic mobility shift technology platform—the EZReader 2. […] Within the linear, steady-state phase of the kinase enzymatic reaction, the mixed pool of phosphorylated (product) and non-phosphorylated (substrate) peptides was passed through the microfluidic system of the PerkinElmer EZ Reader 2, under an applied electric potential difference. The presence of the phosphate group on the product peptide provided a difference in mass and charge between that of the substrate peptide, resulting in a separation of the substrate and product pools in the sample (Perrin et al. 2010). As the product and substrate peptide mixture passes the lasers within the instrument, these pools are detected (λex=488 nm, λem=568 nm) and resolved as separate peaks. The ratio between these peaks reflects the activity of the compound at that concentration, in that well, under those conditions.
Inhibitors were dissolved in 100% DMSO at a stock concentration of 10 mM. A 100×, 10-point, 4-fold serial dilution of each inhibitor was created in 100% DMSO either manually or on a Hamilton STAR liquid handler, starting at a relevant concentration, usually 1 mM. A volume of 0.130 μL of each concentration was transferred to the relevant wells of a 384-well plate (Greiner 781 201) in duplicate using a TTPLabtech Mosquito nano-litre dispenser. Using a Multidrop Combi, the remaining constituents of the kinase reaction were added to the 130 nL of dosed compound as follows (see table below for final reaction details):
Enzyme activity assays at the ^APPKM for ATP or 1 mM ATP: In each well of a 384-well plate, 0.1-15 nM of untreated enzyme was incubated in a total of 13 μL of buffer (100 mM HEPES pH 7.5, 0.015% Brij 35, 10 mM MgCl2, 1 mM DTT) with 1.5 μM fluorescent peptide and 20-1000 μM ATP, at 25° C., for 60-180 minutes in the presence or absence of a dosed concentration series of compound (1% DMSO final concentration). The kinase reactions were stopped by the addition of 70 μl of Stop buffer (100 mM HEPES pH 7.5, 0.015% Brij 35, 35 mM EDTA and 0.2% of Coating Reagent 3 (Caliper Lifesciences)). The plates were read on a Caliper EZReader 2 as described above.

T1 sequence (Q92918 whole entry): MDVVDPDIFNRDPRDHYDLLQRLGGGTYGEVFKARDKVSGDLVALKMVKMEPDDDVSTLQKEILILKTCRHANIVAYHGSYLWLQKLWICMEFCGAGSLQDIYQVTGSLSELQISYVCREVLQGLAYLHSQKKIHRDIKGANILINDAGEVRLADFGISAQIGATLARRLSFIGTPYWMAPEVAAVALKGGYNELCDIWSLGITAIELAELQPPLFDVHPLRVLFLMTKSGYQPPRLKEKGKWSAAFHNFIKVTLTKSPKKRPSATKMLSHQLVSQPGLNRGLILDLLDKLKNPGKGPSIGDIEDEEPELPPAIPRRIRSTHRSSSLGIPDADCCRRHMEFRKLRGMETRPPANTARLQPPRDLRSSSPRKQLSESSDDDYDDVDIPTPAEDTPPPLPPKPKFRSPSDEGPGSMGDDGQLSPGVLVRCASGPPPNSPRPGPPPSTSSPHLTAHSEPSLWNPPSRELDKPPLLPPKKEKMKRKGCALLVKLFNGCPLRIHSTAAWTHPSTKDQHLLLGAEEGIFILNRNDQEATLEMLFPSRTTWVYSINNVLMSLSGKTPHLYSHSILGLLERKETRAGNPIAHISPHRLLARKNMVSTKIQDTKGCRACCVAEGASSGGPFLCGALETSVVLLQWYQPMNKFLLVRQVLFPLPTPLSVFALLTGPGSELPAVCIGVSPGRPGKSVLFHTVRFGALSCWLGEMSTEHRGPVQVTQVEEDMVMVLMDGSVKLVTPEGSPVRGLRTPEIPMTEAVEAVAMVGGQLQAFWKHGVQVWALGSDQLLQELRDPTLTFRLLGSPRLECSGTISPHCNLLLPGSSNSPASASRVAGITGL

SMILES | IC50
CC[C@@](C)(O)c1cnc(NC2CC2)c2cnc(Nc3ccc4c(n3)[C@@H](C)C(C)(C)OC4=O)cc12 (single isomer, unassigned) [Compound 28] | 3.03 nM
CC[C@@](C)(O)c1cnc(NC2CC2)c2cnc(Nc3ccc4c(n3)[C@@H](C)C(C)(C)OC4=O)cc12 (single isomer, unassigned) [Compound 29] | 1.43 nM
CCOc1ncc([C@@](C)(O)C2CC2)c2cc(Nc3ccc4c(n3)[C@@H](C)C(C)(C)OC4=O)ncc12 (single isomer, unassigned) [Compound 32] | 15.5 nM
CCOc1ncc([C@@](C)(O)C2CC2)c2cc(Nc3ccc4c(n3)[C@@H](C)C(C)(C)OC4=O)ncc12 (single isomer, unassigned) [Compound 33] | 0.56 nM
CC[C@](C)(O)c1cnc(OC2CC2)c2cnc(Nc3ccc4c(n3)C3(CC3)C(C)(C)OC4=O)cc12 (single isomer, unassigned) [Compound 41] | 6.55 nM
C[C@@H]1c2nc(Nc3cc4c([C@@](C)(O)C5CCC5)cnc(OC5CC5)c4cn3)ccc2C(=O)OC1(C)C (single isomer, unassigned) [Compound 43] | 6.72 nM
C[C@@H]1c2nc(Nc3cc4c([C@@](C)(O)C5CCC5)cnc(OC5CC5)c4cn3)ccc2C(=O)OC1(C)C (single isomer, unassigned) [Compound 44] | 1.53 nM
C[C@@H]1c2nc(Nc3cc4c([C@@](C)(O)C(F)(F)F)cnc(OC5CC5)c4cn3)ccc2C(=O)OC1(C)C (single isomer, unassigned) [Compound 50] | 4.51 nM
C[C@@H]1c2nc(Nc3cc4c([C@@](C)(O)C(F)(F)F)cnc(OC5CC5)c4cn3)ccc2C(=O)OC1(C)C (single isomer, unassigned) [Compound 51] | 12.3 nM
CC[C@@](C)(O)c1cnc(OCC(F)(F)F)c2cnc(Nc3ccc4c(n3)[C@@H](C)C(C)(C)OC4=O)cc12 (single isomer, unassigned) [Compound 52] | 23.2 nM
C[C@@H]1c2nc(Nc3cc4c([C@@](C)(O)C5CC5)cnc(OCC(F)(F)F)c4cn3)ccc2C(=O)OC1(C)C (single isomer, unassigned) [Compound 54] | 16.9 nM
C[C@@H]1c2nc(Nc3cc4c([C@@](C)(O)C5CC5)cnc(OCC(F)(F)F)c4cn3)ccc2C(=O)OC1(C)C (single isomer, unassigned) [Compound 55] | 15.9 nM
CC[C@@H](O)c1cnc(OC2CN(S(C)(=O)=O)C2)c2cnc(Nc3ccc4c(n3)[C@@H](C)C(C)(C)OC4=O)cc12 (single isomer, unassigned) [Compound 63] | 2.94 nM
CC[C@@H](O)c1cnc(OC2CN(S(C)(=O)=O)C2)c2cnc(Nc3ccc4c(n3)[C@@H](C)C(C)(C)OC4=O)cc12 (single isomer, unassigned) [Compound 64] | 0.67 nM
CNc1ncc(C(C)(C)O)c2cc(Nc3ccnc(C(C)(C)C)n3)ncc12 [Compound 3] | 23.1 nM
COc1ncc(C(C)(C)O)c2cc(Nc3ccnc(C(C)(C)C)n3)ncc12 [Compound 4] | 2.34 nM
COc1ccc(C(C)(C)O)c2cc(Nc3ccnc(C(C)(C)F)n3)ncc12 [Compound 5] | 18.4 nM
COc1ncc(C(C)(C)O)c2cc(Nc3ccnc(C(C)(C)F)n3)ncc12 [Compound 6] | 9.23 nM
COc1ncc(C(C)(C)O)c2cc(Nc3cnc(C#N)c(C(C)C)n3)ncc12 [Compound 7] | 17.5 nM
COc1ncc(C(C)(C)O)c2cc(Nc3ccc4c(n3)CCOC4=O)ncc12 [Compound 8] | 4.73 nM
COc1ncc(C(C)(C)O)c2cc(Nc3ccnc(N4CC[C@@H]4C)n3)ncc12 [Compound 9] | 1.63 nM
COc1ncc(C(C)(C)O)c2cc(Nc3ccnc(N4CCC[C@@H]4C)n3)ncc12 [Compound 10] | 1.19 nM
COc1ncc(C(C)(C)O)c2cc(Nc3cnc(C#N)c(N4CCC[C@@H]4C)n3)ncc12 [Compound 13] | 6.36 nM
CC1(C)CCc2nc(Nc3cc4c(C(C)(C)O)cnc(OC5CC5)c4cn3)ccc2C(=O)O1 [Compound 22] | 23.6 nM
CC1(C)Cc2nc(Nc3cc4c(C5(O)CCOCC5)cnc(OC5CC5)c4cn3)ccc2C(=O)O1 [Compound 42] | 3.38 nM
CC1(C)Cc2nc(Nc3cc4c(C(C)(O)c5ccccc5)cnc(OC5CC5)c4cn3)ccc2C(=O)O1 (centres unmarked) [Compound 46] | 31.9 nM
C[C@@H]1c2nc(Nc3cc4c(C(C)(O)C5CC5)cnc(OCC(F)F)c4cn3)ccc2C(=O)OC1(C)C (some centres unmarked) [Compound 47] | 1.57 nM

More lines, now with the values ahead:

IC50 | SMILES
2.38 nM | CC[C@@](C)(O)c1cnc(OC2CC2)c2cnc(Nc3ccc4c(n3)[C@@H](C)C(C)(C)OC4=O)cc12 (single isomer, unassigned) [Compound 30]
67.3 nM | COC[C@@](C)(O)c1cnc(OC2CC2)c2cnc(Nc3ccc4c(n3)[C@@H](C)[C@H](C)OC4=O)cc12 (single isomer, unassigned) [Compound 35]
3.86 nM | COC[C@@](C)(O)c1cnc(OC2CC2)c2cnc(Nc3ccc4c(n3)[C@@H](C)[C@H](C)OC4=O)cc12 (single isomer, unassigned) [Compound 36]
3.75 nM | CC[C@@](C)(O)c1cnc(OCC(F)(F)F)c2cnc(Nc3ccc4c(n3)[C@@H](C)C(C)(C)OC4=O)cc12 (single isomer, unassigned) [Compound 53]
2.52 nM | CC[C@H](O)c1cnc(OC2CN(S(C)(=O)=O)C2)c2cnc(Nc3ccc4c(n3)[C@@H](C)[C@H](C)OC4=O)cc12 (single isomer, unassigned) [Compound 58]
12.9 nM | CC[C@H](O)c1cnc(OC2CN(S(C)(=O)=O)C2)c2cnc(Nc3ccc4c(n3)[C@@H](C)[C@H](C)OC4=O)cc12 (single isomer, unassigned) [Compound 59]
1.66 nM | CC[C@@](C)(O)c1cnc(O[C@H]2C[C@@H](S(C)(=O)=O)C2)c2cnc(Nc3ccc4c(n3)[C@@H](C)[C@H](C)OC4=O)cc12 (single isomer, unassigned) [Compound 62]
0.39 nM | CC[C@@](C)(O)c1cnc(O[C@H]2C[C@@H](S(C)(=O)=O)C2)c2cnc(Nc3ccc4c(n3)[C@@H](C)C(C)(C)OC4=O)cc12 (single isomer, unassigned) [Compound 65]
1.74 nM | CC[C@@](C)(O)c1cnc(O[C@H]2C[C@@H](S(C)(=O)=O)C2)c2cnc(Nc3ccc4c(n3)[C@@H](C)C(C)(C)OC4=O)cc12 (single isomer, unassigned) [Compound 66]
0.66 nM | CC[C@@](C)(O)c1cnc(O[C@H](C)C[C@@H](C)S(C)(=O)=O)c2cnc(Nc3ccc4c(n3)[C@@H](C)[C@H](C)OC4=O)cc12 (single isomer, unassigned) [Compound 67]
0.41 nM | CC[C@@](C)(O)c1cnc(O[C@H](C)C[C@@H](C)S(C)(=O)=O)c2cnc(Nc3ccc4c(n3)[C@@H](C)[C@H](C)OC4=O)cc12 (single isomer, unassigned) [Compound 68]
0.89 nM | CC[C@@](C)(O)c1cnc(O[C@H](C)C[C@@H](C)S(C)(=O)=O)c2cnc(Nc3ccc4c(n3)[C@@H](C)C(C)(C)OC4=O)cc12 (single isomer, unassigned) [Compound 69]
0.49 nM | CC[C@@](C)(O)c1cnc(O[C@H](C)C[C@@H](C)S(C)(=O)=O)c2cnc(Nc3ccc4c(n3)[C@@H](C)C(C)(C)OC4=O)cc12 (single isomer, unassigned) [Compound 70]
2.01 nM | C[C@@H]1OC(=O)c2ccc(Nc3cc4c(C(C)(C)O)cnc(OCC5(F)CC5)c4cn3)nc2[C@H]1C [Compound 37]
1.91 nM | CC(=O)N1CC(Oc2ncc(C(C)(C)O)c3cc(Nc4ccc5c(n4)[C@@H](C)[C@H](C)OC5=O)ncc23)C1 [Compound 45]
0.45 nM | C[C@@H]1OC(=O)c2ccc(Nc3cc4c(C(C)(C)O)cnc(O[C@H]5C[C@@H](S(C)(=O)=O)C5)c4cn3)nc2[C@H]1C [Compound 56]
0.2 nM | C[C@@H]1OC(=O)c2ccc(Nc3cc4c(C(C)(C)O)cnc(OC5CN(S(C)(=O)=O)C5)c4cn3)nc2[C@H]1C [Compound 57, (7S,8R)-2-((5-(2-Hydroxypropan-2-yl)-8-((1-(methylsulfonyl)azetidin-3-yl)oxy)-2,7-naphthyridin-3-yl)amino)-7,8-dimethyl-7,8-dihydro-5H-pyrano[4,3-b]pyridin-5-one]
